According to US11291648B2, “Powdered formulations of cromolyn sodium and alpha-lactose” (The General Hospital Corporation, priority 2018, dated 2022):
Where two headings read alike, the source gives them in different places. Each block holds one compound with its values, some of them ahead of it.

Key:
[1] = Particle size distribution (PSD) of formulation components; format: physicochemical; conditions: for D10 / D50 / D90: Cromolyn API (micronized), Table 2; for D50 (<5 μm) / D90 (<10 μm): Magnesium Stearate (micronized), Table 4; for D10 (3-6 μm) / D50 (20-25 μm) / D90 (50-60 μm): α-Lactose (DFE Pharma Lactohale LH201), Table 3
From the text: The methodology included particle size determination (PSD); powdered x-ray crystallization diffraction (PXRD); and gravimetric vapor sorption (GVS).

[2] = Table 5, Gilani et al.; cited from earlier work

Compound: O=C(O)c1cc(=O)c2c(OCC(O)COc3cccc4oc(C(=O)O)cc(=O)c34)cccc2o1 [Lot # 13-0105, Cromolyn sodium]
D10 ([1]; listed as 13-0105): 0.5 μm
D50 ([1]; listed as 13-0105): 1.9 μm
D90 ([1]; listed as 13-0105): 4.6 μm

Compound: Magnesium Stearate [Lot 14-0035]
D50 (<5 μm) ([1]; listed as 14-0035): 3.56 μm
D90 (<10 μm) ([1]; listed as 14-0035): 6.74 μm

Compound: Magnesium Stearate [Mg St]
Particle size D10 ([1]; component of Batch 1, Table 8): 3.3 μm
Particle size D50 ([1]; component of Batch 1, Table 8): 8.3 μm
Particle size D90 ([1]; component of Batch 1, Table 8): 22.6 μm
Particle size D50 ([1]; component of Batch 2, Table 8): 4.82 μm
Particle size D90 ([1]; component of Batch 2, Table 8): 9.28 μm
Particle size D50 ([1]; component of Batch 3, Table 8): 4.33 μm
Particle size D90 ([1]; component of Batch 3, Table 8): 8.04 μm

Compound: Magnesium Stearate [Lot 15-0077]
D50 (<5 μm) ([1]; listed as 15-0077): 4.82 μm
D90 (<10 μm) ([1]; listed as 15-0077): 9.28 μm

Compound: OC[C@H]1O[C@@H](O[C@H]2[C@H](O)[C@@H](O)[C@@H](O)O[C@@H]2CO)[C@H](O)[C@@H](O)[C@H]1O [Batch P450M, α-Lactose]
D10 [2]: 2.5 ± 0.3
D90 [2]: 26.5 ± 0.3

Compound: OC[C@H]1O[C@@H](O[C@H]2[C@H](O)[C@@H](O)[C@@H](O)O[C@@H]2CO)[C@H](O)[C@@H](O)[C@H]1O [Batch P325M, α-Lactose]
D10 [2]: 6.6 ± 0.8
D90 [2]: 74.1 ± 3.8

Compound: O=C(O)c1cc(=O)c2c(OCC(O)COc3cccc4oc(C(=O)O)cc(=O)c34)cccc2o1 [Cromolyn Sodium, Cromolyn sodium]
Particle size D10 ([1]; component of Batch 1, Table 8): 0.6 μm
Particle size D50 ([1]; component of Batch 1, Table 8): 1.8 μm
Particle size D90 ([1]; component of Batch 1, Table 8): 3.8 μm
Particle size D90 ([1]; component of Batch 2, Table 8): 4.2 μm
Particle size D10 ([1]; component of Batch 3, Table 8): 0.6 μm
Particle size D50 ([1]; component of Batch 3, Table 8): 1.8 μm
Particle size D90 ([1]; component of Batch 3, Table 8): 3.8 μm
D10 [2]: 0.7 ± 0.1
D50 [2]: 1.52 ± 0.2
D90 [2]: 3.03 ± 0.02

Compound: Magnesium Stearate [Lot 18-0038]
D50 (<5 μm) ([1]; listed as 18-0038): 4.33 μm
D90 (<10 μm) ([1]; listed as 18-0038): 8.04 μm

Results, then the compound that gave them:

D10 ([1]; listed as 15-0013): 0.6 μm
D50 ([1]; listed as 15-0013): 1.8 μm
D90 ([1]; listed as 15-0013): 3.8 μm
Compound: O=C(O)c1cc(=O)c2c(OCC(O)COc3cccc4oc(C(=O)O)cc(=O)c34)cccc2o1 [Lot # 15-0013, Cromolyn sodium]

D10 (3-6 μm) ([1]; listed as 15-0066): 4 μm
D50 (20-25 μm) ([1]; listed as 15-0066): 23 μm
D90 (50-60 μm) ([1]; listed as 15-0066): 57 μm
Compound: OC[C@H]1O[C@@H](O[C@H]2[C@H](O)[C@@H](O)[C@@H](O)O[C@@H]2CO)[C@H](O)[C@@H](O)[C@H]1O [Lot# 15-0066, α-Lactose]

D90 ([1]; listed as 15-0079): 4.2 μm
Compound: O=C(O)c1cc(=O)c2c(OCC(O)COc3cccc4oc(C(=O)O)cc(=O)c34)cccc2o1 [Lot # 15-0079, Cromolyn sodium]

Particle size D10 ([1]; component of Batch 1, Table 8): 3 μm
Particle size D50 ([1]; component of Batch 1, Table 8): 21 μm
Particle size D90 ([1]; component of Batch 1, Table 8): 54 μm
Particle size D10 ([1]; component of Batch 2, Table 8): 4 μm
Particle size D50 ([1]; component of Batch 2, Table 8): 23 μm
Particle size D90 ([1]; component of Batch 2, Table 8): 57 μm
Particle size D10 ([1]; component of Batch 3, Table 8): 3 μm
Particle size D50 ([1]; component of Batch 3, Table 8): 22 μm
Particle size D90 ([1]; component of Batch 3, Table 8): 59 μm
Compound: OC[C@H]1O[C@@H](O[C@H]2[C@H](O)[C@@H](O)[C@@H](O)O[C@@H]2CO)[C@H](O)[C@@H](O)[C@H]1O [α-Lactose]

D10 (3-6 μm) ([1]; listed as 16-0127): 3 μm
D50 (20-25 μm) ([1]; listed as 16-0127): 22 μm
D90 (50-60 μm) ([1]; listed as 16-0127): 59 μm
Compound: OC[C@H]1O[C@@H](O[C@H]2[C@H](O)[C@@H](O)[C@@H](O)O[C@@H]2CO)[C@H](O)[C@@H](O)[C@H]1O [Lot# 16-0127, α-Lactose]

D10 (3-6 μm) ([1]; listed as 13-0094): 3 μm
D50 (20-25 μm) ([1]; listed as 13-0094): 21 μm
D90 (50-60 μm) ([1]; listed as 13-0094): 54 μm
Compound: OC[C@H]1O[C@@H](O[C@H]2[C@H](O)[C@@H](O)[C@@H](O)O[C@@H]2CO)[C@H](O)[C@@H](O)[C@H]1O [Lot# 13-0094, α-Lactose]
